What was measured:
[1] = Tmax in rat at 40 mg/kg, po administered QD measured after 1 day; assay type: ADME, organism-based; set-up: dose 40 mg/kg, route oral; settings: in vivo
HepG2 [2] = assay: Mitochondrial toxicity against human HepG2 cells assessed as decrease in ribosomal DNA up to 100 uM after 14 days by RT-PCR analysis; assay type: cell-based; settings: hepg2, 336 h
CCRF-CEM [3] = assay: Mitochondrial toxicity against human CEM cells assessed as decrease in ribosomal DNA up to 100 uM after 14 days by RT-PCR analysis; assay type: cell-based; settings: 336 h
HepG2 [4] = assay: Cytotoxicity against human HepG2 cells up to 100 uM after 8 days by MTT assay; assay type: cell-based; settings: hepg2, 192 h
Rattus norvegicus [5] = assay: Prodrug conversion in rat liver assessed as beta-D-2'-deoxy-2'-alpha-fluoro-2'-beta-C-methylguanosine triphosphate level at 40 mg/kg, po administered QD as repeated dose measured at 4 hrs post-dosing on day 8; assay type: ADME, organism-based; set-up: dose 40 mg/kg, route oral; settings: in vivo
[6] = AUClast in rat at 40 mg/kg, po administered QD measured after 1 day; assay type: ADME, organism-based; set-up: dose 40 mg/kg, route oral; settings: plasma
[7] = Half life in rat plasma; assay type: ADME, cell-free
[8] = Half life in human plasma; assay type: ADME, cell-free
CCRF-CEM [9] = assay: Cytotoxicity against human CEM cells up to 100 uM after 8 days by MTT assay; assay type: cell-based; settings: 192 h
[10] = Half life in simulated intestinal fluid; assay type: physicochemical
[11] = Half life in simulated gastric fluid; assay type: physicochemical
Hepatitis C virus [12] = assay: Antiviral activity against Hepatitis C virus genotype 1b replicon infected in clone A cells assessed as inhibition of viral replication by RT-PCR analysis; assay type: functional, Hepacivirus hominis
[13] = Half life in rat at 40 mg/kg, po administered QD measured after 7 days; assay type: ADME, organism-based; set-up: dose 40 mg/kg, route oral; settings: in vivo
[14] = AUClast in rat at 40 mg/kg, po administered QD measured after 7 days; assay type: ADME, organism-based; set-up: dose 40 mg/kg, route oral; settings: plasma
[15] = AUC (infinity) in rat at 40 mg/kg, po administered QD measured after 1 day; assay type: ADME, organism-based; set-up: time infinity, dose 40 mg/kg, route oral; settings: plasma
[16] = Tmax in rat at 40 mg/kg, po administered QD measured after 7 days; assay type: ADME, organism-based; set-up: dose 40 mg/kg, route oral; settings: in vivo
Rattus norvegicus [17] = assay: Prodrug activation in rat liver assessed as beta-D-2'-deoxy-2'-alpha-fluoro-2'-beta-C-methylguanosine monophosphate level at 40 mg/kg, po administered QD as repeated dose measured at 4 hrs post-dosing on day 8; assay type: organism-based; set-up: dose 40 mg/kg, route oral; settings: in vivo
Rattus norvegicus [18] = assay: Prodrug activation in rat liver assessed as beta-D-2'-deoxy-2'-alpha-fluoro-2'-beta-C-methylguanosine diphosphate level at 40 mg/kg, po administered QD as repeated dose measured at 4 hrs post-dosing on day 8; assay type: organism-based; set-up: dose 40 mg/kg, route oral; settings: in vivo
BXPC-3 = assay: Cytotoxicity against human BxPC3 cells up to 100 uM after 8 days by MTT assay; assay type: cell-based; settings: bxpc-3, 192 h
HepG2 [19] = assay: Mitochondrial toxicity against human HepG2 cells assessed as decrease in mitochondrial COX2 DNA up to 100 uM after 14 days by RT-PCR analysis; assay type: cell-based; settings: hepg2, 336 h
[20] = Half life in rat at 40 mg/kg, po administered QD measured after 1 day; assay type: ADME, organism-based; set-up: dose 40 mg/kg, route oral; settings: in vivo
Rattus norvegicus [21] = assay: Prodrug activation in rat liver assessed as total nucleotide level at 40 mg/kg, po administered QD as repeated dose measured at 4 hrs post-dosing on day 8; assay type: organism-based; set-up: dose 40 mg/kg, route oral; settings: in vivo
Rattus norvegicus [22] = assay: Tlast in rat at 40 mg/kg, po administered QD measured after 7 days; assay type: ADME, organism-based; set-up: dose 40 mg/kg, route oral; settings: in vivo, 168 h
Hepatocyte = assay: Prodrug activation in human primary hepatocytes assessed as assessed as Tmax of beta-D-2'-deoxy-2'-alpha-fluoro-2'-beta-C-methylguanosine triphosphate level at 100 uM; assay type: cell-based, Liver
Rattus norvegicus [23] = assay: Tlast in rat at 40 mg/kg, po administered QD measured after 1 day; assay type: ADME, organism-based; set-up: dose 40 mg/kg, route oral; settings: in vivo, 24 h
[24] = Cytotoxicity against human HuH7 cells; assay type: cell-based; settings: Huh-7 cells
Huh-7 [25] = assay: Prodrug activation in human HuH7 cells infected with HCV genotype 1b assessed as Tmax of beta-D-2'-deoxy-2'-alpha-fluoro-2'-beta-C-methylguanosine triphosphate level at 100 uM; assay type: cell-based; settings: huh-7, 100 µM
CCRF-CEM [26] = assay: Mitochondrial toxicity against human CEM cells assessed as decrease in mitochondrial COX2 DNA up to 100 uM after 14 days by RT-PCR analysis; assay type: cell-based; settings: 336 h
[27] = Cmax in rat at 40 mg/kg, po administered QD measured after 1 day; assay type: ADME, organism-based; set-up: dose 40 mg/kg, route oral; settings: in vivo
[28] = Half life in human liver S9 fraction; assay type: ADME, subcellular
Hepatitis C virus [29] = assay: Antiviral activity against Hepatitis C virus expressing NS5B S282T mutant by cell-based replicon assay; assay type: functional, Hepacivirus hominis
[30] = AUC (infinity) in rat at 40 mg/kg, po administered QD measured after 7 days; assay type: ADME, organism-based; set-up: time infinity, dose 40 mg/kg, route oral; settings: plasma
Huh-7 [31] = assay: Cytotoxicity against human HuH7 cells up to 100 uM after 8 days by MTT assay; assay type: cell-based; settings: huh-7, 192 h
[32] = Cmax in rat at 40 mg/kg, po administered QD measured after 7 days; assay type: ADME, organism-based; set-up: dose 40 mg/kg, route oral; settings: in vivo
Hepatitis C virus [33] = assay: Antiviral activity against Hepatitis C virus genotype 1b replicon infected in Lunet cells by luciferase reporter gene assay; assay type: functional, Hepacivirus hominis
Rattus norvegicus [34] = assay: Prodrug activation in rat liver assessed as free nucleoside level at 40 mg/kg, po administered QD as repeated dose measured at 4 hrs post-dosing on day 8; assay type: organism-based; set-up: dose 40 mg/kg, route oral; settings: in vivo

Structure (SMILES): CC(C)Oc1nc(N)nc2c1ncn2[C@@H]1O[C@@H]2COP(=O)(OC3CCCC3)O[C@H]2[C@@]1(C)F (some centres not stated)
- Tmax [1]: 3.67 h
- Activity (HepG2 [2]): Non-toxic
- Activity (CCRF-CEM [3]): Non-toxic
- Activity (HepG2 [4]): Non-toxic
- Drug metabolism (Rattus norvegicus [5]): 2.02 nmol/g
- AUC(0-t) at 24 h [6]: 340 ng·h/mL
- half-life [7]: > 24 h
- half-life [8]: > 23.4 h
- Activity (CCRF-CEM [9]): Non-toxic
- half-life [10]: 15 h
- half-life [11]: 9 h
- EC90 (Hepatitis C virus [12]): 184 nM
- half-life [13]: 3.32 h
- AUC(0-t) at 168 h [14]: 170 ng·h/mL
- AUC(0-inf) [15]: 770 ng·h/mL
- Tmax [16]: 2.33 h
- Drug metabolism (Rattus norvegicus [17]): 20.85 nmol/g
- Drug metabolism (Rattus norvegicus [18]): 17.61 nmol/g
- Activity (BXPC-3): Non-toxic
- Activity (HepG2 [19]): Non-toxic
- half-life [20]: 2.83 h
- Drug metabolism (Rattus norvegicus [21]): 40.5 nmol/g
- Tlast (Rattus norvegicus [22]): 8 h
- Tmax (Hepatocyte): 24 h
- Tlast (Rattus norvegicus [23]): 10.7 h
- CC90 [24]: > 100000 nM
- Tmax (Huh-7 [25]): 72 h
- Activity (CCRF-CEM [26]): Non-toxic
- Cmax [27]: 80 ng/mL
- half-life [28]: > 24 h
- EC90 (Hepatitis C virus [29]): 23 nM
- AUC(0-inf) [30]: 210 ng·h/mL
- Activity (Huh-7 [31]): Non-toxic
- Cmax [32]: 50 ng/mL
- EC90 (Hepatitis C virus [33]): 60 nM
- Drug metabolism (Rattus norvegicus [34]): 7.47 nmol/g

Structure (SMILES): CC(C)Oc1nc(N)nc2c1ncn2[C@@H]1O[C@@H]2COP(=O)(O)O[C@H]2[C@@]1(C)F
- EC90 (Hepatitis C virus [33]): > 10000 nM

Structure (SMILES): CC(C)Oc1nc(N)nc2c1ncn2[C@@H]1O[C@@H]2COP(=O)(OC3CCCCC3)O[C@H]2[C@@]1(C)F (some centres not stated)
- EC90 (Hepatitis C virus [33]): 300 nM

Structure (SMILES): CC(C)Oc1nc(N)nc2c1ncn2[C@@H]1O[C@@H]2COP(=O)(OC(C)C)O[C@H]2[C@@]1(C)F (some centres not stated)
- half-life [7]: > 24 h
- half-life [8]: > 24 h
- half-life [10]: > 20 h
- half-life [11]: > 20 h
- EC90 (Hepatitis C virus [12]): 677 nM
- CC90 [24]: > 100000 nM
- half-life [28]: 16.3 h
- EC90 (Hepatitis C virus [33]): 740 nM

Structure (SMILES): CCCOP1(=O)OC[C@H]2O[C@@H](n3cnc4c(OCC)nc(N)nc43)[C@](C)(F)[C@@H]2O1 (some centres not stated)
- EC90 (Hepatitis C virus [12]): 13300 nM
- CC90 [24]: > 100000 nM

Structure (SMILES): COc1nc(N)nc2c1ncn2[C@@H]1O[C@@H]2COP(=O)(OCc3ccccc3)O[C@H]2[C@@]1(C)F (some centres not stated)
- CC90 [24]: > 10000 nM
- EC90 (Hepatitis C virus [33]): 70 nM

Structure (SMILES): COc1nc(N)nc2c1ncn2[C@@H]1O[C@H](COP(=O)(N[C@@H](C)C(=O)OC(C)C)Oc2ccccc2)[C@@H](O)[C@@]1(C)F (some centres not stated)
- half-life [7]: < 0.02 h
- half-life [8]: > 24 h
- half-life [10]: > 20 h
- half-life [11]: 16 h
- Tmax (Hepatocyte): 8 h
- Tmax (Huh-7 [25]): 24 h
- half-life [28]: 0.44 h

Structure (SMILES): CC(C)Oc1nc(N)nc2c1ncn2[C@@H]1O[C@@H]2COP(=O)(OC3CCC3)O[C@H]2[C@@]1(C)F (some centres not stated)
- half-life [7]: 8.6 h
- half-life [8]: 11.7 h
- half-life [10]: 4.2 h
- half-life [11]: 2.6 h
- EC90 (Hepatitis C virus [12]): 224 nM
- CC90 [24]: > 100000 nM
- half-life [28]: 6.3 h
- EC90 (Hepatitis C virus [33]): 50 nM

Structure (SMILES): CC(C)Oc1nc(N)nc2c1ncn2[C@@H]1O[C@@H]2COP(=O)(OCc3ccccc3)O[C@H]2[C@@]1(C)F (some centres not stated)
- CC90 [24]: > 100000 nM
- EC90 (Hepatitis C virus [33]): 40 nM
